pIC50: −log10 of the molar value.

The nature of experiment [1]: Inhibition of linoleic acid lipid peroxidation induced by AAPH. An excerpt: The second technique is based on the ability of the compounds to inhibit lipid peroxidation of linoleic acid induced by 2,2′-Azobis(2-amidinopropane) dihydrochloride (AAPH) radical (Table 2). AAPH-induced linoleic acid oxidation has been developed as a quick and reliable method for measuring the antioxidant activity. The thermal free radical producer (AAPH) generates free radicals in the solution which cause the oxidation of linoleic acid, and the method is a measure of how effective antioxidants protect against lipid peroxidation in vitro. Oxidation of linoleic acid by AAPH is followed by UV spectrophotometry in a highly diluted sample [61].
2,2′-Azobis(2-amidinopropane) dihydrochloride (AAPH) was used as a free radical initiator. Ten microliters of the 16 mM linoleic acid sodium salt solution was added to the UV cuvette containing 0.93 mL of 0.05 M phosphate buffer, pH 7.4 prethermostated at 37 °C. The oxidation reaction was initiated at 37 °C under air by the addition of 50 μL of 40 mM AAPH solution. Oxidation was carried out in the presence of the synthesized compounds (10 μL, from a stock solution of 10 mM in DMSO). In the assay without antioxidant, lipid oxidation was measured in the presence of the same level of DMSO.

The target of experiment [2] is T1, soybean lipoxygenase (Glycine max, UniProt P08170).
T1 sequence (P08170 1-839): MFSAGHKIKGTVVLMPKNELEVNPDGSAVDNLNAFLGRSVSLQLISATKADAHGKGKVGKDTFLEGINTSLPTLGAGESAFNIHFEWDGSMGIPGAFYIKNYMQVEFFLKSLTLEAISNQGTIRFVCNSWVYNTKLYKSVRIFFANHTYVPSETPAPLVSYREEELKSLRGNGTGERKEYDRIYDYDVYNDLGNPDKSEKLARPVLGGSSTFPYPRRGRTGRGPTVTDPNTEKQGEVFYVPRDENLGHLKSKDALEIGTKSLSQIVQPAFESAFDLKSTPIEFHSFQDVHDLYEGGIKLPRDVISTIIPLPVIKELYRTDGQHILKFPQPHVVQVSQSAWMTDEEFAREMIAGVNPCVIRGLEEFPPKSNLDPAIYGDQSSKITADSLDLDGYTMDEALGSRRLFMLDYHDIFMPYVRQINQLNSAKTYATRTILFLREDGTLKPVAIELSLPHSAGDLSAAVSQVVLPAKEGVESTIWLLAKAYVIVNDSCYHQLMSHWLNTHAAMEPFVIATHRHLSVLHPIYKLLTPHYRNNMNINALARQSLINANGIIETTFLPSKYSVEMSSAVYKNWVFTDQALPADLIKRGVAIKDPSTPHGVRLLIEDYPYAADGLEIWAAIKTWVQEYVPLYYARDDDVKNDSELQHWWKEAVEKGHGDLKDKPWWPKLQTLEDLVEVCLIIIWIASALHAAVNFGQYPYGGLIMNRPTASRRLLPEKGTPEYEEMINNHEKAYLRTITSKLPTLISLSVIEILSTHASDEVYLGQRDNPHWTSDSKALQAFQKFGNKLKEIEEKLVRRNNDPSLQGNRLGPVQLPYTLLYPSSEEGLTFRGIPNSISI
Description: Soybean LOX inhibition study in vitro. Type of experiment: biochemical. To be noted: for inhibition at 100 µM: read-out: Inhibition of Soybean Lipoxygenase 100 μM (%). The protocol: Furthermore, as an indication of their anti-inflammatory activity, all the molecules were tested as inhibitors of soybean lipoxygenase (LOX). The enzyme lipoxygenase catalyzes the first two steps in the metabolism of arachidonic acid, which is cleaved from membrane phospholipids to leukotrienes (LTB4). LTB4 generation is considered to be important in the pathogenesis of neutrophil-mediated inflammatory diseases. For this study, the UV absorbance-based soybean LOX assay was used, which is a plant enzyme with satisfactory homology with the human 5-LOX [61, 62, 63, 64, 65, 66].
The tested compounds dissolved in DMSO were incubated at room temperature with sodium linoleate (0.1 mL) and 0.2 mL of enzyme solution ([…] in saline) in Tris buffer pH 9.

The nature of experiment [3]: ABTS radical cation decolorization assay. To be noted: 100 μM. As to the method:
The ABTS radical cation decolorization assay was used as another antioxidant activity estimation protocol (Table 2). Oxidation of ABTS with potassium persulfate generates directly the radical with no involvement of an intermediate radical, which is then reduced upon adding electron-donating antioxidants.
In order to produce the ABTS radical cation (ABTS^+·), ABTS stock solution in water (7 mM) was mixed with potassium persulfate (2.45 mM) and left in the dark at room temperature for 12–16 h before use. Our published experimental technique was used (1). The results are recorded after 1 min of the mixing solutions at 734 nm. The results were compared to the appropriate standard inhibitor Trolox.

Experiment [4] is described as follows: Interaction with the stable free radical DPPH (reducing activity). The protocol:
The first assay refers to the interaction of the compounds with the stable free radical DPPH and it is a fast, simple, cost-effective, and widely used method, where the DPPH radical reacts directly with the antioxidant and is decolorized. This interaction indicates their radical scavenging ability in an iron-free system. The scavenging effect of the synthesized analogues on the DPPH radical was evaluated according to the methods of Hadjipavlou et al..
To an ethanolic solution of DPPH (100 μM) in absolute ethanol, an equal volume of the compounds dissolved in DMSO was added (100 μM). […]
(The DPPH test is a chemical assay of radical scavenging.)

The nature of experiment [5]: Competition of the tested compounds with DMSO for hydroxyl radicals. To be noted: 100 μM. The text has this: Among the reactive oxygen species (ROS), the hydroxyl (^•OH) free radical is possibly the most toxic, reacting with several biological important molecules such as DNA, lipids, or carbohydrates. Polyunsaturated fatty acids are particularly vulnerable by free radicals. Iron released from damaged cells is more likely to be readily available to catalyze the generation of ^•OH radicals. Thus, we tried to test the ability of our compounds to scavenge hydroxyl radicals determining the competition of selected chalcones and aurones with DMSO for hydroxyl radicals. Hydroxyl radicals were generated using the Fe^3+/ascorbic acid system and expressed as a percentage inhibition of formaldehyde production in the presence of each compound at 100 μM.
The hydroxyl radicals generated by the Fe^3+ / ascorbic acid system, were detected by the determination of formaldehyde produced from the oxidation of DMSO (Table 2). A negative control using the same % DMSO was used. Trolox was used as reference compound [75].

`O=C(/C=C/c1ccc(O)c(O)c1)c1cc(Br)ccc1O` [Compound 4b, 5′-bromo-2′,3,4-trihydroxy-chalcone]: the “Inhibition of Lipid Peroxidation of Linoleic Acid Induced by AAPH Radical (%)” value (“Inhibition of Lipid Peroxidation … (%)” below) worked out at 81.8% in experiment [1] (0 min); 82.3% in experiment [1] (100 μM); 82.6% in experiment [1] (3 min); 82.5% in experiment [1] (6 min); 81.5% in experiment [1] (9 min). In addition, in experiment [2] (read-out: Inhibition of Soybean Lipoxygenase IC50), the negative-log IC50 (pIC50) was 4.15. In addition, in experiment [3], the “ABTS+· %” value was “inactive and no”. Further, the “Interaction with the Free Radical DPPH (%)” value in experiment [4] (100 μM, 20 min) is 82.4%; in experiment [4] (100 μM, 60 min) it was 82.0%. For the same compound, the “HO· (%) competition with DMSO for hydroxyl radicals” value (“HO· (%) competition with DMSO” below) in experiment [5] is 100%.
As to `COCOc1ccc2c(c1)O/C(=C\c1ccc(OCOC)c(OCOC)c1)C2=O` [Compound 6a, 3′,4′,6-tri(methoxymethoxy)-aurone], the “Inhibition of Lipid Peroxidation … (%)” value in experiment [1] (100 μM) is recorded as 18.5%. Also, in experiment [2], the inhibition at 100 µM came to 24.4%. In addition, in experiment [3], the “ABTS+· %” value was 86%. In addition, the “Interaction with the Free Radical DPPH (%)” value was “no interaction and did not show any DPPH radical scavenging ability and no” in experiment [4] (100 μM, 20 min); “no” in experiment [4] (100 μM, 60 min). Moreover, the “HO· (%) competition with DMSO” value in experiment [5] was 43%.
On to `COc1cc(OC)c(OC)cc1/C=C1\Oc2ccccc2C1=O` [Compound 6b, 2′,4′,5′-trimethoxy-aurone], for which the “Inhibition of Lipid Peroxidation … (%)” value in experiment [1] (100 μM) was 29.4%. The inhibition at 100 µM in experiment [2] is 13%. For the same compound, the “ABTS+· %” value in experiment [3] came to 64%. Further, the “Interaction with the Free Radical DPPH (%)” value is “no interaction and did not show any DPPH radical scavenging ability and no” in experiment [4] (100 μM, 20 min); “no” in experiment [4] (100 μM, 60 min). In addition, in experiment [5], the “HO· (%) competition with DMSO” value is reported as “no”.
For the compound `O=C1/C(=C/c2ccc(O)c(O)c2)Oc2cc(O)ccc21` [Compound 7a, 3′,4′,6-Trihydroxy-Aurone], in experiment [1] (100 μM), the “Inhibition of Lipid Peroxidation … (%)” value stood at 53.2%. Besides, in experiment [2], the inhibition at 100 µM is 24.5%. In addition, the “ABTS+· %” value in experiment [3] stood at 71%. The “Interaction with the Free Radical DPPH (%)” value is listed as 92.3% in experiment [4] (0 min); 89% in experiment [4] (100 μM, 20 min); 91.2% in experiment [4] (100 μM, 60 min); 94.4% in experiment [4] (3 min); 94.9% in experiment [4] (6 min); 94.9% in experiment [4] (9 min). Besides, the “HO· (%) competition with DMSO” value in experiment [5] was “inactive and no”.

The term pIC50 denotes the IC50 on a negative log10 scale, so that one unit is a factor of ten. The term inhibition denotes the relative decrease from the control value, in per cent.

The record behind these values is article PMC8125951, “Exploring the 2′-Hydroxy-Chalcone Framework for the Development of Dual Antioxidant and Soybean Lipoxygenase Inhibitory Agents” (Molecules, 2021).
